Test results taken from patent US20250235499A1, “ANTI-OVARIAN CANCER PHARMACEUTICAL COMPOSITION AND ACTION TARGET THEREOF” (Zhejiang Chinese Medical University, priority 2024, published 2025).

Key:
[1] = test system: Hey ovarian cancer cells; experiment: CCK-8 detection of proliferation of an ovarian cancer cell; format: cell-based, human; conditions: CA 50-800 μmol/L, BDMC 3.125-50 μmol/L, 24 and 48 hours, concentration- and time-dependent
Procedure: (§1) SKOV3 and Hey ovarian cancer cells in logarithmic growth phase were digested with 0.1% trypsin to prepare a cell suspension, and the cell concentration was quantified at 10^4 cells/mL. 200 μL of the cell suspension each well was inoculated into a 96 well plate, and 200 μL of PBS was added to each well of the outer circle to eliminate edge effects. The 96 well plate was placed in a 37° C. incubator containing 5% CO2 for 24 hours each. After the cells adhered to the wall, the culture medium was discarded, and the cells were washed three times with PBS buffer. New culture medium containing different concentrations of CA (0, 50, 100, 200, 400, and 800 μmol/L) and BDMC ([…]) were added, with 6 parallel wells in each group. After adding a pharmaceutical, cultivation was further conducted, the 96 well plate was taken out at 24 hours and 48 hours, the original culture medium was discarded, the cells were washed three times with PBS, 200 μL of prepared serum-free culture medium containing 10% CCK-8 was added, and incubated at 37° C. for 1 hour. A well with drug concentration of 0 μmol/L was used as a control well and a well without cells and only added with a CCK-8 solution as a blank well. An absorbance at a wavelength of 450 nm was measured using a microplate reader, and an IC50 value was calculated using GraphPad Prism 8 software. […]

[2] = test system: SKOV3 ovarian cancer cells; experiment: as above; format: cell-based, human; conditions: CA 50-800 μmol/L, BDMC 3.125-50 μmol/L, 24 and 48 hours, concentration- and time-dependent
Procedure: as §1

[3] = test system: MCM2, CDK4, Cyclin D1, P21; experiment: Western Blot of tumor body cyclin in tumor bearing nude mice; format: in vivo, BALB/c nude mice; conditions: nude mouse tumor body, compared to the Control group
Source text: The expression of nude mice tumor body cyclin and EMT related proteins in tumor bearing nude mice after intervention with DDP, CA, BDMC, and combined administration was shown in FIG. 29. In the figure, 1 represented the Control group; 2 represented the DDP group; 3 represented the CA group; 4 represented the BDMC group; and 5 represented the CA+BDMC group.

[4] = test system: CDK4, Cyclin D1, P21 in SKOV3 cells; experiment: Expression of cell cycle related proteins in cells; format: cell-based, human
[5] = test system: Hey ovarian cancer cells; experiment: Colony formation with MCM2 knockdown or overexpression; format: cell-based, human
Procedure: (§2) SKOV3 and Hey ovarian cancer cells in logarithmic growth phase were knocked down with MCM2 (Control group, sh-NC group, sh-MCM2 group) and overexpressed with MCM2 (Control group, OE-NC group, OE-MCM2 group). The original culture medium was discarded, washed with PBS buffer, and digested with 0.1% trypsin. A corresponding culture medium was added to prepare a cell suspension. Cells were counted using a hemocytometer and a cell concentration was quantified at 10^3 cells/mL. 1500 μL of each well was inoculated into a 6 well plate, with 3 parallel wells in each group, and incubated in a 37° C. incubator containing 5% CO2 for 12 days. The medium was changed every three days. After the cultivation time was over, the six well plate was taken out, and the original culture medium was poured out. An appropriate amount of 4% paraformaldehyde was added to each well and fixed for 30 minutes. The plate was washed twice with a PBS buffer after pouring out the paraformaldehyde, an appropriate amount of 1% crystal violet solution was added for staining for 10 minutes, the crystal violet solution was poured out, and the plate was washed twice with PBS. Photos were taken, and the number of cell clones formed was counted. After knocking down MCM2 on the SKOV3 and Hey ovarian cancer cells and intervening with CA, BDMC, and combination administration, the results were shown in FIGS. 17A-17B. In FIGS. 17A-17B, A represented the formation of SKOV3 cell clones; and B represented the formation of Hey cell clones. Compared with the sh-NC group, #P<0.05, ##P<0.01; compared with the sh-NC+CA+BDMC group, &P<0.05, &&P<0.01; and ** P<0.01. In FIGS. 18A-18B, A represented the formation of SKOV3 cell clones; and B represented the formation of Hey cell clones. Compared with the OE-NC group, #P<0.05, ##P<0.01; compared with the OE-NC+CA+BDMC group, &P<0.05, &&P<0.01; and *P<0.05; and compared with the OE-MCM2+CA+BDMC group, ΔP<0.05, ΔΔP<0.01; and *P<0.05, ** P<0.01.

[6] = test system: SKOV3 ovarian cancer cells; experiment: as above; format: cell-based, human
Procedure: as §2

[7] = test system: CDK4, Cyclin D1, P21 in Hey cells; experiment: Expression of cell cycle related proteins in cells; format: cell-based, human
[8] = SKOV3 OE-MCM2 cells (MCM2 overexpression), vs OE-MCM2 group
[9] = SKOV3 OE-NC cells (empty vector), vs OE-NC group
[10] = SKOV3 sh-MCM2 cells (MCM2 knockdown), vs sh-MCM2 group
[11] = SKOV3 sh-NC cells (empty vector), vs sh-NC group
[12] = Hey OE-MCM2 cells (MCM2 overexpression), vs OE-MCM2 group
[13] = Hey OE-NC cells (empty vector), vs OE-NC group
[14] = Hey sh-MCM2 cells (MCM2 knockdown), vs sh-MCM2 group
[15] = Hey sh-NC cells (empty vector), vs sh-NC group

In the case of COc1ccc(-c2coc3cc(O)ccc3c2=O)cc1O [CA, calycosin], the effect on proliferation [1] is reported as “proliferative inhibitory effects”, the effect on proliferation [2] is reported as “proliferative inhibitory effects” and the “expression of CDK4 protein (Western Blot)” value [3] is reported as “significantly decreased”. For the same compound, the “expression of Cyclin D1 protein (Western Blot)” value [3] was “significantly decreased”, the “expression of MCM2 protein (Western Blot)” value [3] was “significantly decreased” and the “expression of P21 protein (Western Blot)” value [3] was “significantly increased”. The “expression of CDK4” value [4, 8] was “no significant change”, the “expression of Cyclin D1” value [4, 8] was “no significant change” and the “expression of P21” value [4, 8] was “no significant change”. For the same compound, the “expression of CDK4” value [4, 9] was “significantly decreased”, the “expression of Cyclin D1” value [4, 9] was “significantly decreased” and the “expression of P21” value [4, 9] was “significantly increased”. For the same compound, the “expression of CDK4” value [4, 10] was “no significant change”, the “expression of Cyclin D1” value [4, 10] was “no significant change” and the “expression of P21” value [4, 10] was “no significant change”. For the same compound, the “expression of CDK4” value [4, 11] was “significantly decreased”, the “expression of Cyclin D1” value [4, 11] was “significantly decreased” and the “expression of P21” value [4, 11] was “significantly increased”. For the same compound, the “number of plaques formed by cloning” value [5, 12] was “no significant change”, the “number of plaques formed by cloning” value [5, 13] was “significantly reduced” and the “number of plaques formed by cloning” value [5, 14] was “no significant change”. For the same compound, the “number of plaques formed by cloning” value [5, 15] was “significantly reduced”, the “number of plaques formed by cloning” value [6, 8] was “no significant change” and the “number of plaques formed by cloning” value [6, 9] was “significantly reduced”. The “number of plaques formed by cloning” value [6, 10] was “no significant change”, the “number of plaques formed by cloning” value [6, 11] was “significantly reduced” and the “expression of CDK4” value [7, 12] was “no significant change”. For the same compound, the “expression of Cyclin D1” value [7, 12] was “no significant change”, the “expression of P21” value [7, 12] was “no significant change” and the “expression of CDK4” value [7, 13] was “significantly decreased”. The “expression of Cyclin D1” value [7, 13] was “significantly decreased”, the “expression of P21” value [7, 13] was “significantly increased” and the “expression of CDK4” value [7, 14] was “no significant change”. For the same compound, the “expression of Cyclin D1” value [7, 14] was “no significant change”, the “expression of P21” value [7, 14] was “no significant change” and the “expression of CDK4” value [7, 15] was “significantly decreased”. For the same compound, the “expression of Cyclin D1” value [7, 15] was “significantly decreased” and the “expression of P21” value [7, 15] was “significantly increased”.
